Data set [1] deals with Mouse Colon 26 tumor cells. Kind of data set: Xenograft model: Mouse Colon 26 carcinoma in nude mice. Format: in vivo. The conditions noted are these: Group 1: 5-FU 10 mg/kg IV once daily for five days alone; Day 27. The method, then:
Xenograft Model: Mouse Colon 26 Carcinoma
Nude mice (Harlan Sprague Dawley, Inc., Indianapolis Ind.) were inoculated subcutaneously in the right flank with 0.1 mL of a 0.9% NaCl mixture containing a suspension of Mouse Colon 26 tumor cells (approx. 1×10^6 cells/mouse). Nine days following inoculation, the resulting tumors were measured using vernier calipers and tumor weight was calculated using the formula:
[formula] wherein the width can be taken as the smallest diameter and the length the largest diameter of the tumor. Twenty-four mice having tumors in the range of 75-144 mg were then selected. The mice were randomized into three groups of eight mice each. The body weight of each animal was at taken when the mice were pair-matched on day one and recorded. Body weights were then taken twice weekly thereafter in conjunction with tumor measurements. See Britten C. D. et al., “Enhanced antitumor activity of 6-hydroxymethyl-acylfulvene in combination with irinotecan and 5-fluorouracil in the HT29 human colon tumor xenograft model.” Cancer Res 1999; 59:1049-53, incorporated by reference herein in its entirety.
Beginning on Day 1, 5-fluorouracil (5-FU) was administered intravenously once daily for five days to each animal (Groups 1-3). […] The actual weight of each tumor was recorded.

Data set [2] can be described thus: Solubility of salts in distilled deionized water (HPLC). It counts as physicochemical. The method, then:
The formulator can determine the solubility of the pharmaceutically acceptable salts of the disclosed inhibitors by any method desirable. The following is a non-limiting example of a procedure for evaluating the solubility of a salt of a disclosed inhibitor. A suspension of tert-butyl-{[1-(4-chlorobenzyl)-3-hydroxy-2-oxo-1,2-dihydropyridin-4-yl]methyl}-piperazine-1-carboxylate methanesulfonate (26.6 mg) in distilled deionized water (3.0 mL) is sonicated for 20 min with water bath temperature under 25° C. The suspension is filtered to remove any insoluble salt. The clear filtrate solution (200 μL) is diluted with distilled deionized water (800 μL) and subjected to HPLC analysis. The following are results for the pharmaceutically acceptable salts outlined in Table VII above.

The structures appear in SMILES notation. Where a name gives a salt, the structure may show the parent alone. Read-outs that look alike come from different tables or passages of the source.

On to `O=c1[nH]cc(F)c(=O)[nH]1` [Compound 5-FU, 5-fluorouracil], for which the “Tumor Wgt.” value in data set [1] worked out at 1926.9 ± 284.9 mg.
For `CC(C)(C)OC(=O)N1CCN(Cc2ccn(Cc3ccc(Cl)cc3)c(=O)c2O)CC1` [Compound A41, tert-Butyl-{[1-(4-chlorobenzyl)-3-hydroxy-2-oxo-1,2-dihydropyridin-4-yl]methyl}piperazine-1-carboxylate], the “Solubility” value in data set [2] (distilled deionized water, sonicated 20 min, bath under 25° C., filtrate by HPLC, listed as Free base) is ~1 µg/mL.
Take `CC(C)(C)OC(=O)N1CCN(Cc2ccn(Cc3ccc(Cl)cc3)c(=O)c2O)CC1` [hydrochloride, tert-butyl-{[1-(4-chlorobenzyl)-3-hydroxy-2-oxo-1,2-dihydropyridin-4-yl]methyl}-piperazine-1-carboxylate]: the “Solubility” value in data set [2] was determined as 5900 µg/mL.
With `CC(C)(C)OC(=O)N1CCN(Cc2ccn(Cc3ccc(Cl)cc3)c(=O)c2O)CC1` [p-toluenesulfonate, tert-butyl-{[1-(4-chlorobenzyl)-3-hydroxy-2-oxo-1,2-dihydropyridin-4-yl]methyl}-piperazine-1-carboxylate], the “Solubility” value in data set [2] turned out to be 2300 µg/mL.

Values taken from patent US8309537B2, “Compositions and methods for treating colitis” (Aerpio Therapeutics Inc., priority 2009, dated 2012).
